CCCS(=O)(=O)N[C@H](C(=O)NCCc1ccc(OCC#Cc2ccc(Cl)cc2)c(OC)c1)C(C)C [Compound 1.204, (S)-2-(Propylsulfonyl-amino)-3-methyl-butyric acid N-[2-{3-methoxy-4-(3-(4-chlorophenyl)-2-propyn-1-yloxy)-phenyl}-ethyl]-amide] gave a melting point of 131 to 133 °C.

Reference: patent US6482859B1, “Microbicidal N-sulfonylglycin alkynyloxyphenethyl amide derivatives” (priority 1997, dated 2002)
